{"source": "patent US12344852B2", "about": "“Control of phenotype in plants” (GREENVENUS, LLC, priority 2016, dated 2025)", "key": {"[1]": {"test_system": "EcR-based gene switch (IP:GFP, ID38) in transgenic Arabidopsis leaf samples", "test": "Ligand-induced GFP expression in leaf samples of IP:GFP (ID38) transgenic plants", "format": "cell-based", "conditions": "leaf samples of IP:GFP plants on media containing ligand, 24 hr; not induced in wt control", "description": "Transform wild type Arabidopsis to introduce inducible GFP reporter: DNA construct ID38, which is shown diagrammatically in FIG. 1A, may be used to transform wild type (wt) Arabidopsis. […]\nGFP gene will not be expressed until methoxyfenozide (activator ligand—AL) is provided to mobilize the activator proteins for binding to the GAL4-RE and switching on the IP. […] Since GFP expression can be conveniently monitored in live plants under a fluorescence microscope, the transgenic Arabidopsis can be used to study the dosage, timing, and half life time of the ligand application. […]\nBriefly, the DNA constructs shown in FIG. 1 were built following standard molecular cloning procedures and transformed into disarmed Agrobacterium tumefaciens strain AGL1. […] Selected transgenic plants were analyzed by quantitative PCR (qPCR) and PCR to check transgene copy numbers and transgene intactness. […]"}, "[2]": {"test_system": "GUS reporter gene", "test": "Ligand inducible GUS silencing (Agro-infiltration, X-gluc staining) in DCL1/DCL2/GUS hairpin petunia lines", "format": "cell-based", "experimental": "Assay for Agro-infiltration. Transient β-glucoronidase (GUS) expression, was modified from previously reported literature (Wroblewski et al. (2005) Plant Biotechnol. J. 3(2):259-273). Specifically, Agrobacterium tumefaciens strain EHA105 containing an appropriate plasmid for GUS expression was grown overnight to an OD600 of 0.8 and re-suspended in induction buffer with the following components: MS basal medium (Sigma-Aldrich), 10 mM MgCl2, and 100 uM acetosyringone. After 4 hours, induced culture suspension was infiltrated into detached fully expanded petunia leaves (approximately 0.1 mL/leaf). Leaves were incubated in a humidity chamber at 28° C. for 3 days.\nHistochemical X-gluc staining for GUS visualization. […]\nLigand inducible hairpin expression for dsRNA synthesis targeting two Botrytis cinerea genes and the GUS reporter gene. Ligand inducible expression of the DCL1/DCL2/GUS hairpin cassette was evaluated using the transient Agrobacterium-mediated GUS expression as described above only detached leaves were sprayed with 50 uM ligand or mock treated with water prior to Agro-infiltration. […]\nEight independent Switch-DCL1/DCL2/GUS petunia lines were evaluated by detaching 6 leaves from each line and splitting into two treatments. […]"}}}
{"compound": "COc1cccc(C(=O)NN(C(=O)c2cc(C)cc(C)c2)C(C)(C)C)c1C", "note": "[methoxyfenozide, 3-methoxy-2-methylbenzoic acid 2-(3,5-dimethylbenzoyl)-2-(1,1-dimethylethyl)hydrazide]", "values": [{"measurement": "concentration at which GFP expression was induced", "setting": "[1]", "result": "≤ 16", "unit": "nM"}, {"measurement": "GUS expression in constitutive controls DCL-25 and DCL-6", "setting": "[2]; 50 uM ligand vs water", "result": "did not show any ligand induced changes to GUS expression"}, {"measurement": "GUS expression in Switch DCL-8 line", "setting": "[2]; 50 uM sprayed on detached leaves twice, Agro-infiltration at 3 days, X-gluc staining 3 days later, listed as ligand", "result": "ligand induced GUS silencing"}]}
